According to patent US20050074879A1, “Antisense oligonucleotide modulation of STAT3 expression” (priority 2000, published 2005):
Oligonucleotides are written 5' to 3', each unit as a sugar letter and its base; * is a phosphorothioate linkage, no mark a phosphodiester; rarer units and linkages stand in square brackets, end groups in braces. Plain capitals give the bases only. e = 2'-O-(2-methoxyethyl) (MOE); [5mC] = 5-methylcytosine; d = 2'-deoxy (DNA)

System: Human STAT3 mRNA
Assay: Inhibition of human STAT3 mRNA levels in A549 cells, 75 nM, real-time PCR (Table 13)
Format: cell-based
Settings: 75 nM oligonucleotide with LIPOFECTIN, real-time PCR PPS 199, percent inhibition relative to untreated control cells, average of 2 experiments
Procedure: Oligonucleotide activity is assayed by quantitation of STAT3 mRNA levels by real-time PCR (RT-PCR) using the ABI PRISMS 7700 Sequence Detection System (PE-Applied Biosystems, Foster City, Calif.) according to manufacturer's instructions. This is a closed-tube, non-gel-based, fluorescence detection system which allows high-throughput quantitation of polymerase chain reaction (PCR) products in real-time. As opposed to standard PCR, in which amplification products are quantitated after the PCR is completed, products in RT-PCR are quantitated as they accumulate. This is accomplished by including in the PCR reaction an oligonucleotide probe that anneals specifically between the forward and reverse PCR primers, and contains two fluorescent dyes. A reporter dye (e.g., JOE or FAM, PE-Applied Biosystems, Foster City, Calif.) is attached to the 5′ end of the probe and a quencher dye (e.g., TAMRA, PE-Applied Biosystems, Foster City, Calif.) is attached to the 3′ end of the probe. When the probe and dyes are intact, reporter dye emission is quenched by the proximity of the 3′ quencher dye. During amplification, annealing of the probe to the target sequence creates a substrate that can be cleaved by the 5′-exonuclease activity of Taq polymerase. […] With each cycle, additional reporter dye molecules are cleaved from their respective probes, and the fluorescence intensity is monitored at regular (six-second) intervals by laser optics built into the ABI PRISM™ 7700 Sequence Detection System. In each assay, a series of parallel reactions containing serial dilutions of mRNA from untreated control samples generates a standard curve that is used to quantitate the percent inhibition after antisense oligonucleotide treatment of test samples.
RT-PCR reagents are obtained from PE-Applied Biosystems, Foster City, Calif. RT-PCR reactions are carried out by adding 25 l PCR cocktail (1× TAQMAN7 buffer A, 5.5 mM MgCl2, 300 µM each of DATP, dCTP and dGTP, 600 µM of dUTP, 100 nM each of forward primer, reverse primer, and probe, 20 U RNAse inhibitor, 1.25 units AMPLITAQ GOLD7, and 12.5 U MuLV reverse transcriptase) to 96 well plates containing 25 l poly(A) mRNA solution. The RT reaction is carried out by incubation for 30 minutes at 48° C. following a 10 minute incubation at 95° C. to activate the AMPLITAQ GOLD7, 40 cycles of a two-step PCR protocol are carried out: 95° C. for 15 seconds (denaturation) followed by 60° C. for 1.5 minutes (annealing/extension).
The compounds were analyzed for their effect on STAT3 mRNA levels in A549 cells. The human lung carcinoma cell line A549 was obtained from the American Type Culture Collection (ATCC) (Manassas, Va.). A549 cells were routinely cultured in DMEM basal media (Invitrogen Corporation, Carlsbad, Calif.) supplemented with 10% fetal calf serum (Invitrogen Corporation, Carlsbad, Calif.), 100 units/mL penicillin, and 100 ug/mL streptomycin (Invitrogen Corporation, Carlsbad, Calif.). Cells were routinely passaged by trypsinization and dilution when they reached 90% confluence.
When cells reached 65-75% confluency, they were treated with oligonucleotide. For cells grown in 96-well plates, wells were washed once with […] OPTI-MEM-1 reduced-serum medium (Invitrogen Corporation, Carlsbad, Calif.) and then treated with 130 µL of OPTI-MEM-1 containing […] LIPOFECTIN (Invitrogen Corporation, Carlsbad, Calif.) and 75 nM of the compounds in Table 13. Cells were treated and data were obtained in duplicate. Untreated cells served as controls. After 4-7 hours of treatment at 37° C., the medium was replaced with fresh medium. Cells were harvested 16-24 hours after oligonucleotide treatment. STAT3 mRNA levels in A549 cells were quantitated by real-time PCR as described by other methods herein.
Probes and primers to human STAT3 were designed to hybridize to a human STAT3 sequence, using published sequence information (incorporated herein as SEQ ID NO: 1). For STAT 3 the PCR primers were: • forward primer: […]

In order of rising “% Inhib (inhibition of human STAT 3 mRNA levels)” value:
1. 337319 (antisense eA*eA*eG*eG*eA*dG*dT*dG*dG*dG*dT*d[5mC]*dT*d[5mC]*dT*eA*eG*eG*eT*e[5mC]) [compound 337319]  38%
2. 337346 (antisense eA*eA*eT*eG*eT*d[5mC]*dA*dG*dG*dA*dT*dA*dG*dA*dG*eA*eT*eA*eG*eA) [compound 337346]  55%
3. 337330 (antisense eG*e[5mC]*e[5mC]*eA*eT*dG*dT*dT*dT*dT*d[5mC]*dT*dT*dT*dG*e[5mC]*eA*eA*eA*eA) [compound 337330]  59%
4. 337355 (antisense eA*eT*eT*eG*e[5mC]*dT*dG*d[5mC]*dA*dG*dG*dT*d[5mC]*dG*dT*eT*eG*eG*eT*eG) [compound 337355]  61%
5. 337354 (antisense eT*eG*e[5mC]*eA*eG*dG*dT*d[5mC]*dG*dT*dT*dG*dG*dT*dG*eT*e[5mC]*eA*e[5mC]*eA) [compound 337354]  62%
6. 337349 (antisense eT*eA*e[5mC]*eT*eT*dT*d[5mC]*d[5mC]*dG*dA*dA*dT*dG*d[5mC]*d[5mC]*eT*e[5mC]*e[5mC]*eT*e[5mC]) [compound 337349]  65%
7. 337322 (antisense eT*e[5mC]*eT*eG*eA*d[5mC]*dA*dG*dA*dT*dG*dT*dT*dG*dG*eA*eG*eA*eT*e[5mC]) [compound 337322]  69%
8. 337340 (antisense eA*eT*eT*eT*e[5mC]*dA*dG*d[5mC]*dA*dA*dA*dT*dG*dA*d[5mC]*eA*eT*eG*eT*eT) [compound 337340]  72%
9. 337318 (antisense eG*eG*eT*e[5mC]*eT*d[5mC]*dT*dA*dG*dG*dT*d[5mC]*dA*dA*dT*e[5mC]*eT*eT*eG*eA) [compound 337318]  74%
10. 337320 (antisense e[5mC]*eT*eG*eG*e[5mC]*dA*dA*dG*dG*dA*dG*dT*dG*dG*dG*eT*e[5mC]*eT*e[5mC]*eT) [compound 337320]  74%
11. 337341 (antisense eT*eG*eA*eT*eG*dA*dT*dT*dT*d[5mC]*dA*dG*d[5mC]*dA*dA*eA*eT*eG*eA*e[5mC]) [compound 337341]  74%
12. 337351 (antisense e[5mC]*eT*eA*e[5mC]*e[5mC]*dT*dG*dG*dG*dT*d[5mC]*dA*dG*d[5mC]*dT*eT*e[5mC]*eA*eG*eG) [compound 337351]  74%
13. 337325 (antisense eT*eT*e[5mC]*eT*eT*dG*dG*dG*dA*dT*dT*dG*dT*dT*dG*eG*eT*e[5mC]*eA*eG) [compound 337325]  75%
14. 337337 (antisense eA*eT*eG*eT*eT*dG*dT*dT*d[5mC]*dA*dG*d[5mC]*dT*dG*d[5mC]*eT*eG*e[5mC]*eT*eT) [compound 337337]  76%
15. 337326 (antisense eG*eT*e[5mC]*eA*eG*d[5mC]*dT*dG*d[5mC]*dT*d[5mC]*dG*dA*dT*dG*e[5mC]*eT*e[5mC]*eA*eG) [compound 337326]  78%
16. 337323 (antisense eT*eG*eG*e[5mC]*eA*dT*d[5mC]*dT*dG*dA*d[5mC]*dA*dG*dA*dT*eG*eT*eT*eG*eG) [compound 337323]  79%
17. 337324 (antisense eG*e[5mC]*eA*eT*eT*dT*dG*dG*d[5mC]*dA*dT*d[5mC]*dT*dG*dA*e[5mC]*eA*eG*eA*eT) [compound 337324]  79%
18. 337336 (antisense eT*e[5mC]*eT*eT*eT*dG*d[5mC]*dT*dG*d[5mC]*dT*dT*dT*d[5mC]*dA*e[5mC]*eT*eG*eA*eA) [compound 337336]  79%
19. 337321 (antisense eA*e[5mC]*e[5mC]*eA*e[5mC]*dA*dA*d[5mC]*dT*dG*dG*d[5mC]*dA*dA*dG*eG*eA*eG*eT*eG) [compound 337321]  80%
20. 337338 (antisense eA*eT*eG*eA*e[5mC]*dA*dT*dG*dT*dT*dG*dT*dT*d[5mC]*dA*eG*e[5mC]*eT*eG*e[5mC]) [compound 337338]  80%
21. 337352 (antisense eA*eT*eA*eA*eA*d[5mC]*dT*dT*dG*dG*dT*d[5mC]*dT*dT*d[5mC]*eA*eG*eG*eT*eA) [compound 337352]  80%
22. 337342 (antisense eT*eT*eA*eT*eA*dG*d[5mC]*d[5mC]*d[5mC]*dA*dT*dG*dA*dT*dG*eA*eT*eT*eT*e[5mC]) [compound 337342]  81%
23. 337353 (antisense eG*eT*e[5mC]*eG*eT*dT*dG*dG*dT*dG*dT*d[5mC]*dA*d[5mC]*dA*e[5mC]*eA*eG*eA*eT) [compound 337353]  81%
24. 337327 (antisense eT*e[5mC]*e[5mC]*e[5mC]*eA*dA*dG*dA*dG*dT*dT*dT*d[5mC]*dT*d[5mC]*eT*eG*e[5mC]*e[5mC]*eA) [compound 337327]  84%
25. 337339 (antisense eA*eG*e[5mC]*eA*eA*dA*dT*dG*dA*d[5mC]*dA*dT*dG*dT*dT*eG*eT*eT*e[5mC]*eA) [compound 337339]  84%
26. 337343 (antisense eT*eG*eA*eT*e[5mC]*dT*dT*dA*dT*dA*dG*d[5mC]*d[5mC]*d[5mC]*dA*eT*eG*eA*eT*eG) [compound 337343]  84%
27. 337350 (antisense eG*eA*e[5mC]*eA*eA*dT*dA*d[5mC]*dT*dT*dT*d[5mC]*d[5mC]*dG*dA*eA*eT*eG*e[5mC]*e[5mC]) [compound 337350]  84%
28. 337328 (antisense e[5mC]*eA*eT*eG*eT*dG*dA*dT*d[5mC]*dT*dG*dA*d[5mC]*dA*d[5mC]*e[5mC]*e[5mC]*eT*eG*eA) [compound 337328]  85%
29. 337334 (antisense e[5mC]*e[5mC]*e[5mC]*eA*eG*dA*dA*dG*dG*dA*dG*dA*dA*dG*d[5mC]*e[5mC]*e[5mC]*eT*eT*eG) [compound 337334]  85%
30. 337335 (antisense eT*e[5mC]*e[5mC]*eA*eG*d[5mC]*d[5mC]*dA*dG*dA*d[5mC]*d[5mC]*d[5mC]*dA*dG*eA*eA*eG*eG*eA) [compound 337335]  86%
31. 337345 (antisense eG*eG*eT*eA*eG*d[5mC]*dA*dT*d[5mC]*d[5mC]*dA*dT*dG*dA*dT*e[5mC]*eT*eT*eA*eT) [compound 337345]  86%
32. 337329 (antisense eT*eA*eG*e[5mC]*e[5mC]*d[5mC]*dA*dT*dG*dT*dG*dA*dT*d[5mC]*dT*eG*eA*e[5mC]*eA*e[5mC]) [compound 337329]  88%
33. 337331 (antisense e[5mC]*e[5mC]*eT*eT*eG*d[5mC]*d[5mC]*dA*dG*d[5mC]*d[5mC]*dA*dT*dG*dT*eT*eT*eT*e[5mC]*eT) [compound 337331]  88%
34. 337347 (antisense eG*e[5mC]*e[5mC]*eT*e[5mC]*d[5mC]*dT*d[5mC]*d[5mC]*dT*dT*dG*dG*dG*dA*eA*eT*eG*eT*e[5mC]) [compound 337347]  88%
